Reference: ChEMBL document CHEMBL2331094 (Bioorg Med Chem Lett, 2013)

Legend:
Format in all cases: cell-based
[1] = target: T1, Lysophosphatidic acid receptor 2 (Homo sapiens, UniProt Q9HBW0); assay: Intrinsic activity at human LPA2 receptor transfected in HEK293 cells after 1 hr by TGFalpha shedding assay relative to LPA
[2] = target: T2, Lysophosphatidic acid receptor 4 (Homo sapiens, UniProt Q99677); assay: Intrinsic activity at human LPA4 receptor transfected in HEK293 cells after 1 hr by TGFalpha shedding assay in presence of Ki16425 relative to LPA
T2 sequence (Q99677 whole entry): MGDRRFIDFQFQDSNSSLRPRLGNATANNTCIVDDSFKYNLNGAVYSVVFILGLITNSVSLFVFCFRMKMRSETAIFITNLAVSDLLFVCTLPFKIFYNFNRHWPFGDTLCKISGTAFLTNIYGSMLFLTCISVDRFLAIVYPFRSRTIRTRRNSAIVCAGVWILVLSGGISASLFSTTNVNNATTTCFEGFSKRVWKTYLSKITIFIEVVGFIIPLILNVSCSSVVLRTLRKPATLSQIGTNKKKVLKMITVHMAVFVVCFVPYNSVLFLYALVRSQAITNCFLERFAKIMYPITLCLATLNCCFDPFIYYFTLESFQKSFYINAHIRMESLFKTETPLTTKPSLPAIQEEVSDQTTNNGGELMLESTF

[3] = target: T3, Lysophosphatidic acid receptor 3 (Homo sapiens) (UniProt Q9UBY5); assay: Intrinsic activity at human LPA3 receptor transfected in HEK293 cells after 1 hr by TGFalpha shedding assay relative to LPA
T3 sequence (whole entry): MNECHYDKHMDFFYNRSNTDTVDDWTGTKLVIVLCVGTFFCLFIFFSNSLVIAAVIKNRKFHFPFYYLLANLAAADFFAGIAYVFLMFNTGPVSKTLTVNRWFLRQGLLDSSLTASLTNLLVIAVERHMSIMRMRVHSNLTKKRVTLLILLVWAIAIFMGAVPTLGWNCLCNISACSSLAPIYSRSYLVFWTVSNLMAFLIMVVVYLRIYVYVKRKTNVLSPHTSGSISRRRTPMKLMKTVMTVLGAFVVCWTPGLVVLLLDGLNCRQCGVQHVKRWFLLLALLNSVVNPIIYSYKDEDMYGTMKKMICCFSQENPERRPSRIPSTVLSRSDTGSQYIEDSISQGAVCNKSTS

[4] = target: T4, Lysophosphatidic acid receptor 5 (Homo sapiens, UniProt Q9H1C0); assay: Intrinsic activity at human LPA5 receptor transfected in HEK293 cells after 1 hr by TGFalpha shedding assay in presence of Ki16425 relative to LPA
T4 sequence (Q9H1C0 whole entry): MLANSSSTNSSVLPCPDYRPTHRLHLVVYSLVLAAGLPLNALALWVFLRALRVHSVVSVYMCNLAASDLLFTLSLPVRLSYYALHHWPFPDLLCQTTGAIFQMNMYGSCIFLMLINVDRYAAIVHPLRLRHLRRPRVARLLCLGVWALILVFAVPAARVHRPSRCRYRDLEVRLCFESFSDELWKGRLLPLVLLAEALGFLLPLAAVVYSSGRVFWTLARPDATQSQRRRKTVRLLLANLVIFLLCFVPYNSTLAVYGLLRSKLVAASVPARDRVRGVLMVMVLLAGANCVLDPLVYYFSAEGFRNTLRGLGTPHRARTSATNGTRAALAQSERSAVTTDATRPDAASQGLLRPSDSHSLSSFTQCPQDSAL

[5] = target: T5, Lysophosphatidic acid receptor 6 (Homo sapiens) (UniProt P43657); assay: Intrinsic activity at human LPA6 receptor transfected in HEK293 cells after 1 hr by TGFalpha shedding assay in presence of Ki16425 relative to LPA
T5 sequence (whole entry): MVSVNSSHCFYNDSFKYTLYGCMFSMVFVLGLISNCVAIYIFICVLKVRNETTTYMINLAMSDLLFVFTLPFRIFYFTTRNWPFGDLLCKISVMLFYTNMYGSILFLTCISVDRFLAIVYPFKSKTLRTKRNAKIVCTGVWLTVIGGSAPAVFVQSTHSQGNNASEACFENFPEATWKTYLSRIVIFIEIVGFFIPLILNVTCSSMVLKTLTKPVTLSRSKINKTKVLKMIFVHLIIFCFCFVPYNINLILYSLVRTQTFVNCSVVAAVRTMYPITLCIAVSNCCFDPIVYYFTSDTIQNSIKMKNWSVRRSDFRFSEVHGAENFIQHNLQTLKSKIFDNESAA

[6] = target: T6, Lysophosphatidic acid receptor 1 (Homo sapiens, UniProt Q92633); assay: Intrinsic activity at human LPA1 receptor transfected in HEK293 cells after 1 hr by TGFalpha shedding assay relative to LPA
T6 sequence (Q92633 whole entry): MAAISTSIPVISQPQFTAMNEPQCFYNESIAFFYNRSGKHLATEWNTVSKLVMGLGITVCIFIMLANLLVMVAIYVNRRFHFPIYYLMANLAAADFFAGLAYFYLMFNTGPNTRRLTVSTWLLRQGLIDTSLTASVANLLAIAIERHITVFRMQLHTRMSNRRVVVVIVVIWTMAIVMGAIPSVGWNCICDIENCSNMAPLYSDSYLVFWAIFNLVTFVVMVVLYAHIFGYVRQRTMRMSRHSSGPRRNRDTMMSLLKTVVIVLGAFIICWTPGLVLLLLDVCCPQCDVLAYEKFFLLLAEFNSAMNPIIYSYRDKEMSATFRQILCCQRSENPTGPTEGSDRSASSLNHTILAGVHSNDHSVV

[7] = target: T6, Lysophosphatidic acid receptor 1; assay: Agonist activity at human LPA1 receptor transfected in HEK293 cells after 1 hr by TGFalpha shedding assay
[8] = target: T7, Lysophosphatidic acid receptor 3 (Homo sapiens, UniProt Q9UBY5); assay: Agonist activity at human LPA3 receptor transfected in HEK293 cells after 1 hr by TGFalpha shedding assay
T7 sequence (Q9UBY5 whole entry): T3 sequence (whole entry)

[9] = target: T2, Lysophosphatidic acid receptor 4; assay: Agonist activity at human LPA4 receptor transfected in HEK293 cells after 1 hr by TGFalpha shedding assay in presence of Ki16425
[10] = target: T8, Lysophosphatidic acid receptor 6 (Homo sapiens, UniProt P43657); assay: Agonist activity at human LPA6 receptor transfected in HEK293 cells after 1 hr by TGFalpha shedding assay in presence of Ki16425
T8 sequence (P43657 whole entry): T5 sequence (whole entry)

[11] = target: T4, Lysophosphatidic acid receptor 5; assay: Agonist activity at human LPA5 receptor transfected in HEK293 cells after 1 hr by TGFalpha shedding assay in presence of Ki16425
[12] = target: T1, Lysophosphatidic acid receptor 2; assay: Agonist activity at human LPA2 receptor transfected in HEK293 cells after 1 hr by TGFalpha shedding assay

T1 sequence (Q9HBW0 whole entry): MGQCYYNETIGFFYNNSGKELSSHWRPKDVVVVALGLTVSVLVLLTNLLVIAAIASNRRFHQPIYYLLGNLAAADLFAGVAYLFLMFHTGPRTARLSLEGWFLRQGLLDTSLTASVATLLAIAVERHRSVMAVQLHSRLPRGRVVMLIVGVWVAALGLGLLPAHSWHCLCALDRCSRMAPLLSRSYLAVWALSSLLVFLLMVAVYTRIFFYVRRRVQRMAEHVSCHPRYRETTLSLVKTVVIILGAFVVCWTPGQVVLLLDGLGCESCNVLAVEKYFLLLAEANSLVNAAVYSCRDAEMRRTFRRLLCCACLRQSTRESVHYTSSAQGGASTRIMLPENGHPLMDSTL

Row | Structure (SMILES) | Intrinsic activity [1] | Intrinsic activity [2] | Intrinsic activity [3] | Intrinsic activity [4] | Intrinsic activity [5] | Intrinsic activity [6] | EC50 [7] [nM] | EC50 [8] [nM] | EC50 [9] [nM] | EC50 [10] [nM] | EC50 [11] [nM] | EC50 [12] [nM]
1 | CCCCCCCC/C=C\CCCCCCCC(=O)OC[C@@H](O)COP(=O)(O)O [LYSOPHOSPHATIDIC ACID] | 1 | 1 | 1 | 1 | 1 | 1 | 18 |  |  |  |  | 
2 | CCCCCCCCCCCCCCCC(=O)OC[C@@H](O)COP(=O)(O)O | 0.092 | 0.14 | 0.102 | 1.04 | 0.25 | 0.24 | 71 | 580 | 84 | 930 | 68 | 290
3 | CCCCCCCCCCCCCCCCCC(=O)OC[C@H](COP(O)(O)=S)OC | 0.178 | 1.6 | 260 | 8.4 | 19.3 | 0.61 | 24 | 0.44 | 4.9 | 58 | 8.2 | 149
4 | CCCCCCCCCCCCCCCCCCOC[C@@H](COP(O)(O)=S)OC | 0.34 | 2.7 | 390 | 23 | 11 | 1.2 | 10.1 | 0.37 | 3.5 | 90 | 3.4 | 110
5 | CCCCCCCCCCCCCCCCCCOC[C@H](COP(O)(O)=S)OC | 0.088 | 2.1 | 140 | 16 | 10.9 | 0.57 | 31 | 1.08 | 4.9 | 105 | 6.1 | 350
6 | CCCCCCCCCCCCCCCCCCOCC(COP(O)(O)=S)OC (racemic) | 0.26 | 2.2 | 570 | 114 | 27 | 1.63 | 8.4 | 0.23 | 3.8 | 39 | 0.83 | 100
7 | CCCCCCCCCCCCCCCCOC(COC)COP(O)(O)=S (configuration not stated) | 0.046 | 2.1 | 300 | 300 | 10.9 | 0.38 | 26 | 0.36 | 3.8 | 66 | 0.26 | 116
8 | CCCCCCCCCCCCCCCCCC(=O)OCC(COP(=O)(O)S)OC (racemic) | 0.188 | 2.6 | 410 | 11.1 | 13.3 | 0.79 | 16.5 | 0.28 | 3.3 | 86 | 6.3 | 161
9 | CCCCCCCCCCCCCCCCCOC(COC)COP(O)(O)=S (racemic) | 0.3 | 2 | 340 | 26 | 15.1 | 1.29 | 11.1 | 0.39 | 4.5 | 78 | 3 | 117
10 | CCCCCCCCCCCCCCCCCC(=O)OC(COC)COP(O)(O)=S (racemic) | 0.165 | 3.9 | 600 | 41 | 14.3 | 1.15 | 12.2 | 0.21 | 2.4 | 76 | 1.81 | 146
11 | CCCCCCCCCCCCCCCCCC(=O)OC[C@@H](COP(O)(O)=S)OC | 0.25 | 3.1 | 500 | 14.8 | 13.1 | 0.94 | 14.7 | 0.27 | 2.7 | 79 | 5.1 | 112
